Test results published in patent EP0336976A1, “PHARMACEUTICAL PREPARATION FOR CURING MULTIPLE SCLEROSIS AND LATERAL A[…]” (VSESOJUZNY KARDIOLOGICHESKY NAUCHNY TSENTR AKADEMII …, priority 1987, dated 1989).
Where a SMILES comes first, the peptide text is derived from it. [ ]: non-standard residue; d: D form.

Assays:
[1] = test system: Patienten mit amyotrophischen Lateralsklerose; assay: Clinical trial in amyotrophic lateral sclerosis patients: course of the disease, on top of conventional nonspecific therapy; type: in vivo, Menschen; conditions: ALS
[2] = test system: Leitungsbahnen des Hirnstammes; assay: Recording of short-latency auditory evoked potentials on acoustic stimulation in multiple sclerosis patients; type: in vivo, Menschen; conditions: MS patients
Excerpt: (§1) Bei der Behandlung der multiplen Sklerose mit dem erfindungsgemässen Präparat und mit T-Aktivin verwendete man neben einer klinischen Analyse der neurologischen Symptome auch eine Methode der Registrierung von kurzlatenten erzeugten Hörpotentialen auf die akustische Stimulation. Die Dynamik der neurologischen Symptome bewertete man in Punkten nach der Kurzkschen Skale. Man führt die Analyse der Punkten-Summe nach der Skale des neurologischen Defizits durch sowie nach der Skale der Invalidisierung (sich verschlimmernde Entwicklung) unter Berücksichtigung der sozialen Adaptation des jeweiligen Patienten durch. Bei der Untersuchung der kurzlatenten erzeugten Hörpotentiale erfolgte die Summierung von 3000 Antworten und es wurden 7 Komponenten registriert, die den funktionellen Zustand folgender Pegel eines Höranalysators widerspiegeln: I - Schneke des Hörnervs, II -Kerne des Cochlearkomplexes, III- Nucleus der oberen Olive, IV - Nucleus der lateralen Schleife, V - Kerne der Höcker der Vierhügelplatte, VI - Kerne mittlerer Kniehöcker, VII - Kerne Auditus kortex. Alle Komponenten wurden nach den Werten der Zwischenpeakintervalle und den Relationen der Peakamplituden analysiert. Die Kontrollgruppe für die Untersuchung der kurzlatenten erzeugten Hörpotentiale bildeten I2 praktisch gesunde Personen.
(§2) Die Untersuchung der Patienten erfolgte vor der Verordnung der Präparate, in 5 und in I4 Tagen nach dem Beginn ihrer Verabreichung.
Die Hauptgruppe der Patienten, die das erfindungsgemässe Präparat verabreicht bekamen, bestand aus 24 Personen (6 Männer und I8 Frauen) im alter von 20 bis 49 Jahren mit zerebrospinaler Form der multiplen Sklerose. Die Dauer der Erkrankung betrug von 2 bis 7 Jahren. Das erfindungsgemässe Präparat führe man den Patienten intramuskulär zu je I bis 2 mg zweimal am Tage innerhalb von 5 Tagen ein. Die Gruppe der Patienten, die das T-Aktivin bekam, bestand aus I4 Personen (6 Männer und 8 Frauen) im Alter von 23 bis 47 Jahren mit zerebrospinaler Form der multiplen Sklerose. Die Dauer der Erkrankung betrug von 2 bis 7 Jahren. […]

[3] = test system: Patienten mit zerebrospinaler Form der multiplen Sklerose; assay: Clinical trial in multiple sclerosis patients: neurological status scored in points (Kurtzke scale: neurological deficit and progression/disability scale), on top of basic therapy; type: in vivo, Menschen
Protocol: Das erfindungsgemässe Präparat für die Behandlung der multiplen Sklerose und der myotrophischen Lateralsklerose wurde in einer Klinik an Menschen erprobt.
Bei der multiplen Sklerose erfolgte die Behandlung mit dem angemeldeten Präparat unter Anwendung der Basistherapie, die die Vitamine der B-Gruppe, Glutaminsäure, Nikotinsäure, Zerebrolysin, Midokalm, und Essentiale einschliesst. Das erfindungsgemässe Präparat wurde den Patienten intramuskulär zu je I bis 5 mg des Wirkstoffes, der in I ml einer physiologischen Lösung aufgelöst wird, zweimal pro Tag innerhalb von 5 Tagen eingeführt.
Bei der Behandlung der multiplen Sklerose wurde die Wirkung des erfindungsgemässen Präparates mit der Wirkung von T-Aktivin verglichen, das unter Anwendung der gleichen wie bei der Behandlung mit dem angemeldeten Präparat Basistherapie eingeführt wurde. Das T-Aktivin führte man den Patienten intramuskulär einmal pro Tag zu je I ml I,0%iger Lösung innerhalb von 5 Tagen ein. Nach einer 7-tägigen Unterbrechung führte man das T-Aktivin in der gleichen dosis während 2 Tage ein.
as §1, §2
Hervorzuheben ist, dass bei den Patienten, denen das erfindungsgemässe Präparat und das T-Aktivin verordnet wurden, innnerhalb der letzten zwei Monate keine Dynamik im neurologischen Status nachgewiesen wurde. Das gab die Möglichkeit, die Verbesserung des Zustandes als Effekt von der Verordnung der Präparate zu betrachten.
Die Hauptgruppe der Patienten, die das erfindungsgemässe Präparat verabreicht bekamen, bestand aus 24 Personen (6 Männer und I8 Frauen) im alter von 20 bis 49 Jahren mit zerebrospinaler Form der multiplen Sklerose. Die Dauer der Erkrankung betrug von 2 bis 7 Jahren. Das erfindungsgemässe Präparat führe man den Patienten intramuskulär zu je I bis 2 mg zweimal am Tage innerhalb von 5 Tagen ein. Die Gruppe der Patienten, die das T-Aktivin bekam, bestand aus I4 Personen (6 Männer und 8 Frauen) im Alter von 23 bis 47 Jahren mit zerebrospinaler Form der multiplen Sklerose. Die Dauer der Erkrankung betrug von 2 bis 7 Jahren.
Das T-Aktivin führte man den patienten intramuskulär zu je I ml 0,I%iger Lösung einmal pro Tag innerhalb von 5 Tagen ein. […]
Bei der Einlieferung ins Krankenhaus wurden dem Patienten Vitamine BI und B₆, Glutaminsäure, innerhalb eines Monates Zerebrolysin verabreicht, durchgeführt wurden kurze Kuren mit Midokalm und Essentiale. […]

Toxicity (LD50) = conditions: in vivo; species and route not given; read-out: LD₅₀
[4] = of 62 patients, listed as Präparat + Nichtspezifische Therapie
[5] = of 62 patients, pronounced plus moderate improvement
[6] = patients with sekundärer Verschlimmerung, effect mainly am I5. Tag
[7] = patients: Leichter Grad, Am I5. Tag
[8] = patients: Remittierend, a) Verschlimmerung, Am I5. Tag

Structure (SMILES): CC(C)C[C@H](NC(=O)[C@H](Cc1ccccc1)NC(=O)CNC(=O)[C@@H](C)NC(=O)[C@@H](N)Cc1ccc(O)cc1)C(=O)N[C@@H](CCCNC(=N)N)C(=O)O [erfindungsgemässe Präparat, Tyr-D-Ala-Gly-Phe-Leu-Arg] (H-Y[dA]GFLR-OH)
- Verbesserung Ausgeprägt, number of patients ([1]; of 62 patients): 8
- Verbesserung Mässig, number of patients ([1]; of 62 patients): 16
- Verbesserung Mässig, share of patients ([1]; of 62 patients): 26%
- keine Anzeichen einer sich verschlimmernden Entwicklung (stabiler Zustand oder Verbesserung), share of patients ([1]; of 62 patients): 84%
- Sich verschlimmernde Entwicklung, number of patients [1, 4]: 10
- Sich verschlimmernde Entwicklung, share of patients [1, 4]: 16%
- Verbesserung Ausgeprägt, share of patients [1, 4]: 13%
- Verbesserung des Zustandes, number of patients [1, 5]: 24 Personen
- Verbesserung des Zustandes, share of patients [1, 5]: 39%
- Fehlen der Dynamik, number of patients ([1]; of 62 patients, stable state): 28
- Fehlen der Dynamik, share of patients ([1]; of 62 patients, stable state): 45%
- keine Anzeichen einer sich verschlimmernden Entwicklung, number of patients ([1]; of 62 patients, stable state or improvement): 52 Personen
- sich verschlimmernde Entwicklung seltener im Vergleich zur Kontrollgruppe ([1]; preparation plus conventional therapy vs conventional therapy alone): 4,8 fache
- Parese in den Füssen ([1]; Beispiel 3, Patient, two 2-week courses of I mg i.m. twice daily, at admission 2 Punkte): 0 Punkte
- Paresegrad in proximalen Abschnitten von Beinen und Armen ([1]; Beispiel 4, Patient E., 4I years, two 2-week courses of 2 mg i.m. twice daily): 0 Punkte
- Parese der Extremitäten ([1]; Beispiel 5, Patient M., second stay, two 2-week courses of I mg i.m. twice daily): 0 Punkte
- Differenzen der Latenzwerte III Peak-I Peak ([2]; Am 6. Tag): 2,22±0,05
- Differenzen der Latenzwerte III Peak-I Peak ([2]; Am I5. Tag): 2,20±0,06
- Verhältnis der Amplituden V Peak - I Peak ([2]; Am I5. Tag): 0,88±0,23
- Punkte nach der Skale der sich verschlimmernden Entwicklung ([3]; Beispiel I, Patientin K., 46 years, progredient MS, after 5 days of I mg twice daily, before treatment 6): 4
- klinische Verbesserung, Anteil der Patienten ([3]; MS patients, whole group, after the course of treatment): 89%
- Verringerung der Summe der Punkte nach der Skale des neurologischen Defizits ([3]; patients with mittlerem Schweregrad, am 6. Tag): 4,3 Punkte
- Senkung des Indexes nach der Skale der sich verschlimmernden Entwicklung [3, 6]: 2,4 Punkte
- Verringerung der Summe der Punkte nach der Skale des neurologischen Defizits [3, 6]: 6,3 Punkte
- Gesamtpunktenzahl nach der Skala des neurologischen Defizits [3, 7]: 8,6±0,9 Punkte
- Index nach der Skala der sich verschlimmernden Entwicklung [3, 7]: 2,8±0,5 Punkte
- Index nach der Skala der sich verschlimmernden Entwicklung ([3]; patients: Leichter Grad, Vor der Behandlung (baseline)): 3,7±0,4 Punkte
- Index nach der Skala der sich verschlimmernden Entwicklung ([3]; patients: Mittlerer Grad, Am 6. Tag): 4,9±0,3 Punkte
- Index nach der Skala der sich verschlimmernden Entwicklung ([3]; patients: Mittlerer Grad, Am I5. Tag): 4,4±0,6 Punkte
- Index nach der Skala der sich verschlimmernden Entwicklung ([3]; patients: Remittierend, a) Verschlimmerung, Am 6. Tag): 3 Punkte
- Gesamtpunktenzahl nach der Skala des neurologischen Defizits [3, 8]: 5 Punkte
- Index nach der Skala der sich verschlimmernden Entwicklung [3, 8]: 2 Punkte
- Index nach der Skala der sich verschlimmernden Entwicklung ([3]; patients: Remittierend, a) Verschlimmerung, Vor der Behandlung (baseline)): 5 Punkte
- Index nach der Skala der sich verschlimmernden Entwicklung ([3]; patients: Remittierend, b) Remission, Am 6. Tag): 3,3±0,5 Punkte
- Index nach der Skala der sich verschlimmernden Entwicklung ([3]; patients: Remittierend, b) Remission, Am I5. Tag): 3,4±0,5 Punkte
- Index nach der Skala der sich verschlimmernden Entwicklung ([3]; patients: Remittierend, b) Remission, Vor der Behandlung (baseline)): 4,3±0,8 Punkte
- Index nach der Skala der sich verschlimmernden Entwicklung ([3]; patients: Remittierend, c) sekundäre Verschlimmerung, Am 6. Tag): 4,8±2,0 Punkte
- Index nach der Skala der sich verschlimmernden Entwicklung ([3]; patients: Remittierend, c) sekundäre Verschlimmerung, Am I5. Tag): 3,5±0,4 Punkte
- Verringerung des Index nach der Skale der Weiterentwicklung der Krankheit ([3]; single patient in acute state of MS, zum I5. Tag): 3 Punkte
- Verringerung der Summe der Punkte nach der Skale des neurologischen Defizits ([3]; whole group, in 5 Tagen nach dem Beginn der Behandlung): 2,9 Punkte
- Verringerung der Summe der Punkte nach der Skale des neurologischen Defizits ([3]; whole group, in I4 Tagen nach dem Beginn der Behandlung): 3,8 Punkte
- LD50 (Toxicity (LD50)): 520 mg/kg
